Measured values reported in US9795587B2, “Compounds for enhancing hypoxia inducible factor activity and methods of use” (Cornell Research Foundation, Inc., priority 2005, dated 2017).

What was measured:
[1] = system: hypoxia response element regulated reporter gene; experiment: Hypoxia response element (enolase promoter) luciferase reporter in cortical neurons; type: cell-based, rat; settings: 40 μM, positive control, FIG. 5
Procedure: FIG. 5. A cell permeant, peptide inhibitor of the HIF prolyl 4-hydroxylase, but not a mutant control, induces expression of HIF-dependent genes. […] The low molecular weight P4H inhibitor, FG-0041 (40 μM) was used as a positive control. To determine whether the Tat-HIF/ODD/wt peptide stabilizes HIF-1 leading to activation of HIF-1 dependent gene expression, the levels of a luciferase reporter gene that is regulated by a hypoxia response element found in the enolase gene promoter was monitored.

HIF-1 target genes = experiment: Expression of HIF-1 target genes in rat cerebral cortex (real time RT-PCR); type: in vivo; settings: 100 mg/kg i.p., Sprague Dawley rats, FIG. 4
Procedure: HIF-1α protein levels were determined in nuclear extracts using a monoclonal anti-HIF-1α antibody (NOVUS Biologicals). Real time RT-PCR was performed in a ABI-7500 instruments using commercial Taqman gene expression assays (Applied BioSystems). Male Sprague Dawley rats, weighing 275-350 gm, were used in these experiments. For surgical procedures, anesthesia was induced with 5% isofluorane delivered in oxygen and maintained at 1.5% throughout surgery. Core body temperature was maintained at 37° C. by a homeothermic heating blanket. Animals were subjected to MCAo by the intraluminal filament method. The right external carotid artery was ligated, cauterized, and cut, and its branches were coagulated. A 35 mm length of 4-0 nylon monofilament (Ethicon) with a rounded tip was then inserted into the internal carotid artery via the proximal end of the external carotid artery stump. The filament was advanced 20 mm beyond the carotid artery bifurcation with slight resistance was encountered. The tilorone analogues R-10,874-DA, R-11,567-DA, and R-9536-DA were injected 100 mg/kg i.p. 24 h pre-MCAo. Equivalent volume of saline was injected i.p. to control rats. Animals were sacrificed 24 h post-MCAo.

HIF-1 = experiment: HIF-luciferase reporter (enolase 1 promoter-luciferase) in stably transfected HT22 cells; type: cell-based; settings: HT22 murine hippocampal cells, FIG. 3
Procedure: HT22 murine hippocampal cells were stably transfected with an enolase 1 promoter-luciferase reporter construct and selected with puromycin. Tilorone analogues R-10,874-DA, R-11,567-DA, and R-9536-DA were tested for their ability to activate a HIF-luciferase reporter. Luciferase activity was measured using a Luciferase Assay System (PROMEGA) according to the manufacture's protocol.

Compound	induction of the HIF-dependent reporter gene [1]	expression of HIF-1 target genes in the rat cerebral cortex (HIF-1 target genes)	HIF-1 transcriptional activity (HIF-luciferase reporter) (HIF-1)
O=C(O)c1c[nH]c2c(ccc3cccnc32)c1=O [FG-0041]	stimulated	–	–
CN(C)CCOc1ccc2c(=O)c3ccc(OCCN(C)C)cc3oc2c1.Cl.Cl [R-10,874-DA, 3,6-bis[2-(dimethylamino)ethoxy]-9h-xanthen-9-one dihydrochloride]	–	induce the expression of HIF-1 target genes	increase HIF-1 transcriptional activity
CN(C)CC(=O)c1ccc2oc3ccc(C(=O)CN(C)C)cc3c2c1.Cl.Cl.O [R-11,567-DA, 2,8-bis[dimethylaminoacetyl]dibenzofurin dihydrochloride hydrate]	–	induce the expression of HIF-1 target genes	increase HIF-1 transcriptional activity
